The source of these data is US4698354A, “4-methoxy-isophthalic acid derivative having a pharmacological activity in thromboembolic disorders” (Societa Italo-Brittanica L. Manetti-H. Roberts & Co., priority 1986, dated 1987).

Series [1] relates to Blood platelet aggregation from ADP. The series can be described thus: Blood platelet anti-aggregate activity in vitro, ADP-induced aggregation, rabbit PRP. Format: cell-based. The note with it: Oryctolagus cuniculus, 10 min, 10 minutes incubation at 37° C., read-out: IC50 (50% decrease of maximum amplitude of aggregation curve). An excerpt: (§1) The compound object of the present invention has been tested to ascertain the acute toxicity, bio-disponibility and interference with the blood platelet function in vitro and in vivo by carrying out tests in all cases in comparison with another molecule, picotamide monohydrate, which is included in the same class of products, and the pharmacological activity of which is already known (see German patent 3113150).
(§2) Platelet aggregation was induced in rabbit "platelet rich plasma" (PRP) by employing as aggregant agents adenosine diphosphate (ADP) and arachidonic acid (AANa) after incubation at 37° C. for 10 minutes with the compounds under test. The activity is expressed as the concentration able to decrease by 50% (IC50) the maximum amplitude (AM) of the aggregation curve so obtained, with respect to the aggregation curve as obtained with control plasmas incubated only with buffers.
(§3) The results of the tests effected with ADP and AANa are hereinafter referred: […]

In series [2] the test system is Blood platelet aggregation from AANa. Description: Blood platelet anti-aggregate activity in vitro, arachidonic acid (AANa)-induced aggregation, rabbit PRP. The settings on record: Oryctolagus cuniculus, 10 min, 10 minutes incubation at 37° C., read-out: IC50 (50% decrease of maximum amplitude of aggregation curve). Format: cell-based.
From the text: as §1, §2, §3

For series [3], the system named is platelet aggregation induced by arachidonic acid. The series can be described thus: Blood platelet anti-aggregant activity in vivo (arachidonic acid-induced aggregation in PRP of treated rabbits). The settings on record: for ED50: Oryctolagus cuniculus, Platelet, 0.5 h, rabbit, gum acacia suspension, blood taken 30 minutes after treatment, arachidonic acid, read-out: ID50 (dose decreasing by 50% the maximum amplitude of the aggregation curve). Also on record: species or system New Zealand rabbits.
From the text: as §1
New Zealand rabbits which had been held fasting for twelve hours with water ad libitum, were administered with G 619 and picotamide monohydrate at various dosages in a gum acacia suspension. To the control rabbits only gum acacia was administered. After 30 minutes from treatment the animals were anaesthetized with sodium pentothal (30 mg/Kg i.v.) and blood was taken from the carotid artery, rendered incoagulable with sodium citrate at 3,8% and centrifuged at 1400 rpm for 15 minutes in order to obtain the platelet rich plasma (PRP). On said PRP the platelet aggregation was induced by arachidonic acid and the corresponding aggregation curve was recorded using a Born aggregometer. The activity is indicated as the dose able to decrease by 50% (ID50) the maximum amplitude (AM) of the aggregation curve of plasma of treated animals with respect to that of plasma from control animals, the following results being obtained: […]

Series [4] can be described thus: Per os absorbtion in rat, plasma levels. Format: in vivo. The note with it: for concentration at 0.5 h: 1/2 h; for absorbtion, times higher than that of picotamide monohydrate: rat per os.
From the text: as §1
Per os absorbtion tests have been carried out in rat after a sole administration of 100 mg/Kg in gum acacia suspension. The determinations of the blood levels of the two substances at various times have been effected on plasma using a high pressure liquid phase chromotograph and indicated as γ/ml. The values referred hereinafter represent the average of 8 determinations: […]

Series [5] in a line: Acute toxicity (DL50), mouse. The settings on record: in vivo, sole administration, seven days observation.
From the text: as §1
(§4) The compound of the present invention was subjected to acute toxicity tests on two animal species and two administration routes. The animals which are treated per os or endovenously in a sole administration, have been held under observation for seven days after treatment by recording the symptomatology and the number of deaths. The results, referred in the following table, are indicated as the dose which produces the death of 50% of the treated animals (DL50) calculated by statistical method: […]

Series [6] is described as follows: Acute toxicity (DL50), rat. The note with it: in vivo, sole administration, seven days observation.
From the text: as §1, §4

Series [7] concerns platelet aggregation induced with ADP. The series can be described thus: Blood platelet anti-aggregant activity in vitro on human PRP, ADP. The settings on record: for IC50: Platelet, ADP, human PRP, ten minutes incubation at 37° C., read-out: IC50 (50% decrease of maximum amplitude of aggregation curve). Type of series: cell-based. The protocol: (§5) The blood platelet anti-aggregant activity of G619 was studied in comparison with picotamide on human platelet rich plasma (PRP), wherein the platelet aggregation was induced with ADP, collagen, AANa and U46619 after incubation at 37° C. for ten minutes with the compounds under test. The results, indicated as a concentration able to decrease by 50% (IC50) the maximum amplitude of the aggregation curve obtained with control plasma incubated only with the buffer, are the following: […]

For series [8], the system named is platelet aggregation induced with collagen. Description: Blood platelet anti-aggregant activity in vitro on human PRP, collagen. Format: cell-based. The settings on record: ten minutes incubation at 37° C., read-out: IC50 (50% decrease of maximum amplitude of aggregation curve). The protocol: as §5
Series [9] concerns platelet aggregation induced with AANa. Description: Blood platelet anti-aggregant activity in vitro on human PRP, AANa. Type of series: cell-based. The settings on record: ten minutes incubation at 37° C., read-out: IC50 (50% decrease of maximum amplitude of aggregation curve). The protocol:
as §5

The test system of series [10] is platelet aggregation induced with U46619. Description: Blood platelet anti-aggregant activity in vitro on human PRP, U46619. Type of series: cell-based. The settings on record: ten minutes incubation at 37° C., read-out: IC50 (50% decrease of maximum amplitude of aggregation curve). The protocol: as §5
For series [11], the system named is production of thromboxane B2 (TxB2). Description: Production of thromboxane B2 (TxB2) in human PRP after stimulation with collagen. Format: cell-based. The note with it: collagen 1 μg/ml, TxB2 measured in ug/ml. The protocol:
In order to investigate the mechanism of action of G619 the production of malondialdehyde (MDA) and thromboxane B2 (TxB2) after stimulation with collagen 1 μg/ml was measured on human PRP.

In series [12] the test system is production of 6-keto-PGFla. Description: Production of 6-keto-PGFla in human PRP after stimulation with collagen. The note with it: collagen 1 ug/ml. Format: cell-based. Here is the method:
The production of 6-keto-PGFla was also measured after stimulation of human PRP with collagen 1 ug/ml.

In series [13] the test system is platelet aggregation induced in PRP using ADP. The series can be described thus: Blood platelet anti-aggregant activity on human volounteers (ADP-induced aggregation in PRP). Type of series: in vivo. The note with it: 500 mg sole dose per os; for percent inhibition of the aggregation curve: ADP 2×10^-6 M. Here is the method:
On healthy human volounteers of both sexes aging from 31 to 53 the blood anti-aggregant activity was evaluated by per os treatment at a 500 mg sole dose, taking the blood samples before treatment and after 1-2-4-6 hours. The platelet aggregation was induced in PRP using ADP as aggregant agent at a concentration of 2×10^-6 M following the method illustrated in example 2. The platelet anti-aggregant activity reported in quantitative terms in the following table, was calculated as percent inhibition of the aggregation curve after treatment with respect to the […]

Setting [14] is: in vivo, po, rat, 100 mg/Kg per os, gum acacia suspension, average of 8 determinations, read-out: blood level (plasma).

The IC50 is the concentration that inhibits the measured activity by half. The term LD50 denotes the dose at which mortality reaches 50%. Read a low LD50 as greater toxicity.

On to `COc1ccc(C(N)=O)cc1C(=O)NCc1cccnc1` [G 619, 3-carbamoyl(3'-picolyl)-4-methoxy-1-benzamide], for which the IC50 in series [1] worked out at 125 µM; in series [2] it was 26.9 µM; in [7], 56 µM; in series [8], 11 µM; in series [9], 4.2 µM; in [10] it was 9.2 µM. In addition, 4.6 µM corresponded to half-maximal inhibition in [11] (IC50). Moreover, the ED50 in series [3] was 25 mg/kg. Further, the “activity, times higher than that of picotamide monohydrate” value in series [3] (rabbit in vivo, ID50) was “about 3 times”. Besides, the concentration at 0.5 h in series [4] (setting [14]) was found to be 26900 ng/mL. In addition, the concentration at 1 h in series [4] (setting [14]) was determined as 20200 ng/mL. Besides, the concentration at 2 h in series [4] (setting [14]) is 9400 ng/mL. For the same compound, in series [4] (in vivo, po, rat, 100 mg/Kg per os, gum acacia suspension, 4 h, average of 8 determinations, read-out: blood level (plasma)), the concentration at 4 h came out at 2100 ng/mL. Besides, the “absorbtion, times higher than that of picotamide monohydrate” value in series [4] (1/2 hour) came to 8 times; in series [4] (2 hours), 19 times. Also, the LD50 at 168 h in series [5] (iv) is 400 mg/kg; in [5] (po, os), over 3000 mg/kg; in series [6] (iv), 450 mg/kg; in series [6] (po, os), over 3000 mg/kg. Besides, the “power of action, factor higher with respect to picotamide” value in series [7] (platelet aggregations induced in human PRP (ADP, collagen, AANa, U46619)) was found to be 10 factor. For the same compound, in series [12] (starting from concentrations of 10^-6 M, read-out: increase in the production of 6-keto-PGFla), the activation at 1 µM lay within 100 to 150%. Besides, the “maximum activity (platelet anti-aggregant)” value in [13] (ADP) is 53,8%. The “time after treatment of maximum activity” value in [13] (ADP) is listed as “two”. For the same compound, the “percent inhibition of the aggregation curve” value in series [13] (1 h) is 38,2%; in series [13] (2 h), 53,8%; in series [13] (4 h), 43,4%; in series [13] (6 h) it was 24,2%.
For `COc1ccc(C(=O)NCc2cccnc2)cc1C(=O)NCc1cccnc1` [Picotamide monohydrate, N-N'-bis-(3-picolyl)-4-methoxy-isophthalamide monohydrate, reference compound], the concentration for half-maximal inhibition (IC50) in series [1] is 930 µM; in series [2], 79 µM; in series [7], 820 µM; in series [8] it was 100 µM; in [9] it was 89 µM; in [10] it was 250 µM. This compound yielded an IC50 in series [11] of 10 µM. The ED50 in series [3] was determined as 78 mg/kg. Moreover, in series [4] (setting [14]), the concentration at 0.5 h came to 3400 ng/mL. The concentration at 1 h in [4] (setting [14]) was 1200 ng/mL. Also, in series [4] (setting [14]), the concentration at 2 h came out at 500 ng/mL. For the same compound, the LD50 at 168 h in series [5] (iv) stood at 275 mg/kg; in [5] (po, os) it was 3000 mg/kg; in series [6] (iv), 190 mg/kg; in series [6] (po, os), 3000 mg/kg. Also, the “effect on production of 6-keto-PGFla (in words)” value in series [12] (10^-6 M) was “hardly efficient”. Besides, in series [13] (ADP), the “maximum activity (platelet anti-aggregant)” value is on record as 41,1%. Besides, the “percent inhibition of the aggregation curve” value is on record as 18,2% in [13] (1 h), 25,6% in [13] (2 h), 41,1% in series [13] (4 h) and 21,5% in series [13] (6 h).
